Earlier results, collected in patent publication US8377979B2, “Pharmaceutical formulation containing phenytoin sodium and magnesium stearate” (Taro Pharmaceuticals North America, Inc., priority 2005, dated 2013).

What was measured:
[1] = gastrointestinal pH range of 1 to 8
[2] = man, oral administration

solubility [1]: practically insoluble
plasma half-life, average [2]: 22 h
SMILES: O=C1NC(=O)C(c2ccccc2)(c2ccccc2)N1 [phenytoin, 5,5-diphenyl-2,4-imidazolidinedione]
